This is an account of results in publication PMC7397040, “New Copper(I) Complex with a Coumarin as Ligand with Antibacterial Activity against Flavobacterium psychrophilum” (Molecules, 2020).

In data set [1] the test system is Flavobacterium psychrophilum 10094. Kind of data set: Antibacterial test (microdilution: MIC, MBC, IC50). In kind it is cell-based. Conditions: for MBC / MIC: n = 3; for MIC: F. psychrophilum 10094, 72 h post-incubation, visual; for Amount Cu in MBC / Amount Cu in MIC / Amount Total in IC50 / Amount Total in MBC / Amount Total in MIC: F. psychrophilum; for Amount Cu in MBC / Amount Cu in MIC: amount of copper contained; for Amount Total in IC50 / Amount Total in MBC / Amount Total in MIC: total compound. On the procedure: A bacterial strain of Flavobacterium psychrophilum (ETECMA) originally isolated from Salmon Coho (Oncorhynchus kisutch) in 2008 in Chiloe, Chile, was used for antibacterial test. […] The strain was cultivated in TYES broth (pH = 7.2) at 15 °C for 48 h with stirring at 180 rpm.
To determine MIC, MBC and IC50 of complex and its precursors, microdilution method was performed with some modifications. F. psychrophilum 10094 (0.4 OD600 nm = 1 × 10^8 CFU/mL, approximately) was inoculated in TYES broth pH 7.2 to 1% cell suspension in 96-well plates (Falcon) and treated with complex and its precursors in serial concentrations between 512 μg/mL to 2 μg/mL and incubated for 72 h at 15 °C with agitation at 180 rpm. The MIC was determined as the lowest compounds concentrations which inhibited bacterial grow by visual comparison with the negative control (TYES broth). […] The MBC was determined as the minimum concentration of the compounds at which the bacterial colony count was diminish to 99.9%. For determination of the half-maximal inhibitory concentration (IC50) of compounds on F. psychrophilum, the OD600 nm of each wells was measured using Nanoquant Infinite M200 Pro (TECAN, Grödig, Austria). For the correct calculation of the OD of each concentration of each compound, wells with TYES medium were used with each concentration without inoculating with F. psychrophilum, this control OD was subtracted obtaining the final OD. Data were analyzed using the GraphPad Prism program 5.0.
On the technique in general: Broth dilution looks for growth in wells or tubes with falling amounts of substance.

The test system of data set [2] is Chinook salmon embryo (CHSE-214) cells. Briefly: cells. The conditions noted are these: for toxicity (in words): CHSE-214, 512 to 2 μg/mL, 24 h; for IC50 (cellular): CHSE-214, 24 h at 16 °C, n = 6. The procedure:
(§1) Since F. psychrophilum is a bacterial pathogen that affects a wide variety of salmonids, we evaluated the toxicity of the [Cu(NN1)2]ClO4 complex in three different cell lines, Chinook salmon embryo (CHSE-214), Salmon Head Kidney-1 (SHK-1) and intestinal epithelial cell line (RT-GUT). For this experiment 1 × 10^5 cells were treated with the different compounds (coumarin, Cu(I) salt and copper (I) complex) in a range of concentrations between 512 μg/mL and 2 μg/mL, incubated at 16 °C for 24 h.
(§2) 1 × 10^5 Cells were seeded and incubated at 16 °C for 24 h. Later, the cells were treated with compounds in concentrations from 512 μg/mL to 2 μg/mL solubilized in dimethyl sulfoxide (DMSO, Merck, Darmstadt, Germany) and incubated at 16 °C for 24 h. Subsequently, the cells were collected, pelleted and resuspended in IF buffer (1X buffer and 2% fetal bovine serum) and 1 µL propidium iodide (PI, 1 mg/mL) was added. The cellular viability (negative to PI) was analyzed by flow cytometer using FACSCanto II Cytometer (BD biosciences, University of Santiago of Chile, Santiago, RM, Chile). For positive control, cells were incubated without compounds; for death control, cells were incubated with 50% ethanol; medium control cells were treated with medium containing 1% of DMSO. To calculate the IC50 of compounds in the cell lines, they were analyzed using GraphPad Prism program 5.0 (GraphPad Software, San Diego, CA, USA), the concentrations were transformed into log (10) and the number of events normalized in percentage, for the calculation of IC50 a nonlinear regression was performed.

The test system of data set [3] is Salmon Head Kidney-1 (SHK-1) cells. Kind of data set: cells. The conditions noted are these: for toxicity (in words): SHK-1, 512 to 2 μg/mL; for IC50 (cellular): SHK-1, 24 h at 16 °C, n = 6. On the procedure:
as §1, §2

Data set [4] relates to intestinal epithelial cell line (RT-GUT). Briefly: cells. The conditions noted are these: for toxicity (in words) / IC50 (cellular): RT-GUT; for toxicity (in words): 512 to 2 μg/mL; for IC50 (cellular): 24 h at 16 °C, n = 6. On the procedure:
as §1, §2

Data set [5] can be described thus: Stability in solution by UV-Vis spectra. In kind it is physicochemical. Conditions: 72 h after the solution was prepared, CHCl3, air-exposed, room temperature. The procedure: The spectral region below 400 nm in complex correspond at π to π* intraligand transition bands, which are similar profile of free ligand, but undergo a red-shift upon complexation to copper(I) in around 20 nm.
All the chemicals were purchased commercially and used without further purification. ^1H, ^13C NMR and 2D spectra were recorded on a Bruker Avance Neo 400 MHz spectrometer (400.133 MHz for ^1H, 40.559 MHz for ^15N and 100.613 MHz for ^13C, (University of Santiago of Chile, Santiago, RM, Chile) equipped with a 5 mm multinuclear broad-band dual probehead, incorporating a z-gradient coil. All the measurement was done in CDCl3 at 300 K. Chemical shifts (in ppm) for ^1H and ^13C were calibrated respect to the residual protonated signal of the solvent (7.26 and 77 ppm respectively) and reported relative to Me4Si. The ^15N signal in ^1H ^15N HMBC were calibrated relative to CH3NO2 (90%) in CDCl3). The following abbreviations were used to explain the multiplicities: s = singlet, d = doublet, m = multiplet. […] Electrochemical behavior was studied by cyclic voltammetry using a potentiostat CHI 620E by CH instrument equipment supplied with the electrochemical analyzer CHI software (University of Santiago of Chile, Santiago, RM, Chile). […]

A short description of data set [6]: Cyclic voltammetry, Cu(II)/Cu(I) oxidation potential. In kind it is physicochemical. Conditions: vs Ag/AgCl, CH2Cl2, 0.1 M TBAP, quasireversible, ΔE = 114 mV. On the procedure:
Voltammetry studies were also performed in order to determine the effect of new NN1 ligand on the Cu(II)/Cu(I) oxidation potential considering the well-known fact of high influence of ligands on the metal-centered HOMO energy. Consequently, measurements were registered at room temperature in −1.10 to +1.30 V vs Ag/AgCl potential range.
All the chemicals were purchased commercially and used without further purification. ^1H, ^13C NMR and 2D spectra were recorded on a Bruker Avance Neo 400 MHz spectrometer (400.133 MHz for ^1H, 40.559 MHz for ^15N and 100.613 MHz for ^13C, (University of Santiago of Chile, Santiago, RM, Chile) equipped with a 5 mm multinuclear broad-band dual probehead, incorporating a z-gradient coil. All the measurement was done in CDCl3 at 300 K. Chemical shifts (in ppm) for ^1H and ^13C were calibrated respect to the residual protonated signal of the solvent (7.26 and 77 ppm respectively) and reported relative to Me4Si. The ^15N signal in ^1H ^15N HMBC were calibrated relative to CH3NO2 (90%) in CDCl3). […] Electronic spectra were recorded on a PerkinElmer UV-VIS Lambda 25 spectrophotometer (University of Santiago of Chile, Santiago, RM, Chile) at room temperature, wavelength range between 200 and 1100 nm from 1.5 × 10^−5 mol/L solutions in dichloromethane to NN1 and [Cu(NN1)2]ClO4. […]

On the set-up of data set [7]: method as in PMID 30177987. Conditions: versus Ag/AgCl in CH2Cl2 ref 18; cited from earlier work.
Setting [8] is: F. psychrophilum 10094, colony count diminished to 99.9%.
Setting [9] is: F. psychrophilum 10094, 72 h post-incubation at 15 °C, OD600, n = 3.

Molecules are shown by their SMILES. In brackets after ≈: the same amount, converted by molar mass. Where two headings read alike, the source gives them in different places. Marks after values point to notes of the source that are not given here.

Broadly, the MBC is the smallest concentration meeting the test's criterion for killing. By IC50 is commonly meant the concentration that inhibits the measured activity by half. Broadly, the MIC is the lowest concentration that inhibits growth of the organism. Consider `O=c1ccc2ccccc2o1` [Coumarin, 1-benzopyran-2-one], for which the MBC in data set [1] (setting [8]) was above 512 µg/mL; in data set [1] (Flavobacterium psychrophilum, 10094, F. psychrophilum 10094, colony count diminished to 99.9%, read-out: MBC), below 512 µg/mL. For the same molecule, the IC50 is 160 ± 25.5 µg/mL (≈ 1.09 mM) in data set [1] (Flavobacterium psychrophilum, F. psychrophilum 10094, 72 h post-incubation at 15 °C, OD600, n = 3, read-out: IC50 (bacterial)); above 512 µg/mL in data set [2] (CHSE-214, 24 h, read-out: IC50 (cellular)); above 512 µg/mL in data set [3] (24 h, read-out: IC50 (cellular)); above 512 µg/mL in data set [4] (Oncorhynchus mykiss, Epithelial cell, 24 h, read-out: IC50 (cellular)). For the same molecule, the MIC in data set [1] (Flavobacterium psychrophilum, read-out: MIC) is 512 µg/mL (≈ 3.5 mM). The “toxicity (in words)” value in data set [2], in data set [3] (24 h) and in data set [4] (24 h) was “toxicity was not observed” throughout.
As for `CC#N.CC#N.CC#N.CC#N.[Cu+].[O-][Cl+3]([O-])([O-])[O-]` [[Cu(CH3CN)4]ClO4], the “IC50 (bacterial)” value in data set [1] (setting [9]) is reported as 10.4 ± 0.7 ^b µg/mL. For the same molecule, in data set [1], the MIC is 64 µg/mL, the “Amount Cu in MBC” value is reported as 12.5 µg/mL, the “Amount Cu in MIC” value is reported as 12.5 µg/mL and the “Amount Total in IC50” value stood at 10.4 µg/mL. Besides, in data set [1], the “Amount Total in MBC” value stood at 64 µg/mL and the “Amount Total in MIC” value was found to be 64 µg/mL. The MBC in data set [1] (setting [8]) came to 64 µg/mL. Besides, in data set [2], the “toxicity (in words)” value was “concentration-dependent toxicity was observed” and the “IC50 (cellular)” value is 59.4 ± 4.1 ^a µg/mL. Also, the “toxicity (in words)” value in data set [3] (24 h) is given as “concentration-dependent toxicity was observed”. The “IC50 (cellular)” value in data set [3] is on record as 159 ± 44.6 ^a µg/mL. Moreover, in data set [4] (24 h), the “toxicity (in words)” value was “concentration-dependent toxicity was observed”. Besides, the “IC50 (cellular)” value in data set [4] is on record as 233.9 ± 19.5 ^a µg/mL.
In the case of `O=c1ccc2cc(N=Cc3ccc4ccccc4n3)ccc2o1.O=c1ccc2cc(N=Cc3ccc4ccccc4n3)ccc2o1.[Cu+].[O-][Cl+3]([O-])([O-])[O-]` [[Cu(NN1)2]ClO4], the “IC50 (bacterial)” value in data set [1] (setting [9]) is reported as 16.1 ± 0.9 ^c µg/mL. Further, in data set [1], the MIC is reported as 32 µg/mL, the “Amount Cu in MBC” value was determined as 2.7 µg/mL, the “Amount Cu in MIC” value is given as 2.7 µg/mL and the “Amount Total in IC50” value is reported as 16.1 µg/mL. In addition, in data set [1], the “Amount Total in MBC” value turned out to be 32 µg/mL and the “Amount Total in MIC” value turned out to be 32 µg/mL. The same molecule came in with an MBC in data set [1] (setting [8]) of 32 µg/mL. Besides, in data set [2], the “toxicity (in words)” value was “concentration-dependent toxicity was observed” and the “IC50 (cellular)” value is given as 29.1 ± 1.4 ^b µg/mL. For the same molecule, in data set [3] (24 h), the “toxicity (in words)” value is listed as “concentration-dependent toxicity was observed”. Also, in data set [3], the “IC50 (cellular)” value is 30.8 ± 1.3 ^b µg/mL. Moreover, in data set [4] (24 h), the “toxicity (in words)” value is recorded as “concentration-dependent toxicity was observed”. Also, the “IC50 (cellular)” value in data set [4] is listed as 53.0 ± 3.1 ^b µg/mL. Further, in data set [5], the “stability in solution (changes in UV-Vis spectral bands)” value is “No significant changes in the spectral bands”. For the same molecule, the “E1/2 Cu(II)/Cu(I) couple” value in data set [6] came to 0.426 V.
For the molecule `[Cu+].[O-][Cl+3]([O-])([O-])[O-].c1ccc2nc(-c3ccc4ccccc4n3)ccc2c1.c1ccc2nc(-c3ccc4ccccc4n3)ccc2c1` [[Cu(biq)2]ClO4], the E1/2 in data set [7] was 0.96 V.
